Test results from publication PMC2948022 (Talanta, 2010).

Columns and labels:
[1] = Plasma concentrations of; details: CRPS patient, (R,S)-Ket 40 mg/h continuous infusion, morning of Day 3; estimated using the standard curve for (2S,6S); (2R,6R)-hydroxynorketamine
[2] = Urine concentrations of; assay type: in vivo, human; details: CRPS patient, (R,S)-Ket 40 mg/h continuous infusion, morning of Day 3
[3] = Relative; assay type: in vivo, human; details: CRPS patient urine, Day 3, AGP-CSP
[4] = cited from earlier work
[5] = cited from earlier work; remark: listed apart in the source
[6] = estimated using the standard curve for (2S,6S), (2R,6R)-hydroxynorketamine
[7] = estimated using the standard curve for (2S,6S)-hydroxyketamine

| SMILES | Plasma [1] | Urine [2, 6] | further results |
| --- | --- | --- | --- |
| NC1(c2ccccc2Cl)CC(O)CCC1=O (single isomer, unassigned) [Peak 4e] | 160 ng/mL | 515 ng/mL |  |
| N[C@]1(c2ccccc2Cl)CC[C@@H](O)CC1=O (single isomer, unassigned) [Peak 4f] | 141 ng/mL |  | Urine (ng/ml) [2, 6]: 4,099 ng/ml |
| CNC1(c2ccccc2Cl)CCCCC1=O (single isomer, unassigned; peak 1) [Peak 1, (R.S)-Ketamine] |  |  | relative enantiomeric urine concentration (R)-/(S)- [3]: 1.0 |
| N[C@@]1(c2ccccc2Cl)CCC[C@@H](O)C1=O (single isomer, unassigned; peak 4a) [Peak 4a] |  |  | concentration in the CNS [4]: reaches significant concentration in the CNS; anesthetic activity [5]: no anesthetic activity |
| NC1(c2ccccc2Cl)CCCC(O)C1=O (single isomer, unassigned; peak 4b) [Peak 4b] | 881 ng/mL | 572 ng/mL |  |
| N[C@]1(c2ccccc2Cl)CC[C@H](O)CC1=O (single isomer, unassigned; peak 4c) [Peak 4c] | 245 ng/mL | 940 ng/mL |  |
| N[C@]1(c2ccccc2Cl)C[C@@H](O)CCC1=O (single isomer, unassigned; peak 4d) [Peak 4d] | 145 ng/mL | 475 ng/mL |  |
| CN[C@]1(c2ccccc2Cl)CC[C@H](O)CC1=O (single isomer, unassigned; peak 5c) [Peak 5c] |  |  | Urine [2, 7]: 4 ng/mL |
| CN[C@@]1(c2ccccc2Cl)CC[C@H](O)CC1=O (single isomer, unassigned; peak 5d) [Peak 5d] |  |  | Urine [2, 7]: 5 ng/mL |
